Measured values from patent US20170368181A1, “Polymeric Nanoparticle” (The Provost Fellows and Scholars of the College of the Holy …, priority 2010, published 2017).

Assays:
[1] = 20° C.; cited from earlier work
NR4A2 mRNA = assay: PGE2-induced NR4A2 mRNA in SW1353 cells, qRT-PCR; type: cell-based, human; conditions: PGE2 1 μM, 1 hour
Experimental: (§1) Cell assay: SW1353 human chondrocytes (ATCC) were maintained in RPMI 1640 medium supplemented with 10% Foetal Calf Serum, L-Glutamine and 1% antibiotics. SW1353 cells were seeded 2.5×10^5 cells per well into 6-well plates. After 24 hours media was replaced with serum free media (SFM) and incubated over night. sCT (10 μM) with either PGE2(1 μM) or IL-1β (10 ng/ml) were added to cells in SFM for 1 hour. Dexamethasone (Dex, 10 μM) was the positive control for the down-regulation of NR4A2. Untreated controls were treated in an identical manner, but with serum-free medium alone. RNA was isolated from SW1353 cells.
RNA Extraction: Media was removed from the cells and 1 mL of TRIzol® (Invitrogen) was added to each well. Cells were homogenised by pipetting the added TRIzol® up and down for 8-10 times. […] Pellet was then resuspended in an appropriate volume of RNASE/DNASE free water and RNA in each sample was quantified at A260. […]
Mix to be added to each reaction tube is 4 μL of 5× 1st Strand Buffer, 2 μL of 0.1 M DTT, 1 μL of RNase Out and 1 μL MMLV. […] NR4A and MMP1, 3, 9 and 13 levels were measured by qRT-PCR and expression levels were normalized to GAPDH levels.
SW1353 cells were treated with sCT alone or polymeric nanoparticles comprising hyaluronic acid, chitosan, and sCT and PGE2 for 1 hour. Total RNA was extracted and assayed for NR4A2 mRNA levels by quantitative RT-PCR. […]

NR4A2 = NR4A2 expression in ankle joints of K/BxN sera-induced mice; type: in vivo, mouse; conditions: intra-peritoneal delivery
Description: On day 4 after K/BxN serum transfer, mice were sacrificed, and their hind paws above the knee joint were harvested for histology to assess the effects of drug treatments on inflammation and bone and cartilage degradation. The histology sections were stained with hematoxylin and eosin (H&E) and Saffarin O and scored blindly under 3 different categories (i) inflammation (synovitis infiltration and pannus formation), (ii) cartilage erosion and (iii) bone erosion. RNA was also isolated from both the ankle joint and knee joint tissue to measure expression of NR4A biomarkers.
RNA was isolated from the ankle joints of control and ‘inflamed’ K/BxN mice to measure expression of NR4A biomarkers. In K/BxN sera-induced mice with no treatment (therefore showing inflammation), high levels of NR4A1, NR4A2 and NR4A3 were over expressed, compared to naïve mice with no serum transfer (no inflammation (FIG. 20).
Expression of NR4A2 was measured in all groups (FIG. 21). […] Histological sections of the knee joint were scored by an observer blinded to the treatment under 3 different criteria (i) inflammation (synovitis infiltration and pannus formation), (ii) cartilage erosion and (iii) bone erosion on a scale of 0-3 (0, none; 1, minimal invasion of meniscus; 2, partial invasion of meniscus; 3, severe invasion of meniscus). […]

MMP 13 = assay: IL-1β-induced MMP 13 mRNA in SW1353 cells, qRT-PCR; type: cell-based, human
Experimental: as §1
Mix to be added to each reaction tube is 4 μL of 5× 1st Strand Buffer, 2 μL of 0.1 M DTT, 1 μL of RNase Out and 1 μL MMLV. Taq Cat# 10342-020 (this contains 0.1 M DTT, 5× 1st S. B.). NR4A and MMP1, 3, 9 and 13 levels were measured by qRT-PCR and expression levels were normalized to GAPDH levels.
Effects of sCT and the nanoparticle on MMP mRNA levels were also investigated. […] Both sCT, HA, and the polymeric nanoparticle down regulated MMP 13 by 47%, 31% and 88% (FIG. 6B). MMPs 1 and 3 were also down regulated. […] Dexamethasone, which is known to down regulate NR4A2 and is used for the treatment of rheumatoid arthritis, was used as a positive control in all experiments. […]

Question: What does the source list for salmon calcitonin [sCT]?
Answer: water solubility [1]: about 1 mg/ml; inhibition of PGE2 induced NR4A2 transcript levels (NR4A2 mRNA): 49%; NR4A2 expression in the ankle joints (NR4A2): reduce NR4A2 expression; down regulation of MMP 13 mRNA (MMP 13): 47%
